According to US20240343692A1 (priority 2021, published 2024):

Assays:
[1] = biological target: T1, 5-HT1A (Homo sapiens, UniProt P08908); test: Radioligand binding at 5-HT1A(h) (agonist radioligand), Eurofins Cerep Panlabs; conditions: human receptor, duplicate, read-out: Percent Inhibition of the Binding of a Specific Radioligand, 5-HT1A; for inhibition at 0.1 µM: % inh. at 100 nM; for inhibition at 1 µM: % inh. at 1.0 μM
T1 sequence (P08908 1-422): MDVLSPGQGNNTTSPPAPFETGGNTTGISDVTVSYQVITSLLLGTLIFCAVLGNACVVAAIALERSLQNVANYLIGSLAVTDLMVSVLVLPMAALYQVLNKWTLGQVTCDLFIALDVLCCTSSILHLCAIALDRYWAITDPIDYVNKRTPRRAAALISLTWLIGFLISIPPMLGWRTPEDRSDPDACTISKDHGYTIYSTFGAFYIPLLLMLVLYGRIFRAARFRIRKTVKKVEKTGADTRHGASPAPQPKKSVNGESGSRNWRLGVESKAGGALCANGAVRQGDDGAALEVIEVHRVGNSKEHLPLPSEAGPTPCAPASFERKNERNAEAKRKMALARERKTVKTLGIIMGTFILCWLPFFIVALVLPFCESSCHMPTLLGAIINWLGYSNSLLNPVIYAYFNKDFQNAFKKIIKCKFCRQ
Description: FIG. 1. Histogram for 5-HT1A(h) (agonist radioligand).

[2] = biological target: 5-HT2B (Homo sapiens, UniProt P41595); test: Radioligand binding at 5-HT2B(h) (agonist radioligand), Eurofins Cerep Panlabs; conditions: human receptor, duplicate, read-out: Percent Inhibition of the Binding of a Specific Radioligand, 5-HT2B; for inhibition at 0.1 µM: % inh. at 100 nM; for inhibition at 1 µM: % inh. at 1.0 μM
Chain of 5-HT2B (P41595 whole entry): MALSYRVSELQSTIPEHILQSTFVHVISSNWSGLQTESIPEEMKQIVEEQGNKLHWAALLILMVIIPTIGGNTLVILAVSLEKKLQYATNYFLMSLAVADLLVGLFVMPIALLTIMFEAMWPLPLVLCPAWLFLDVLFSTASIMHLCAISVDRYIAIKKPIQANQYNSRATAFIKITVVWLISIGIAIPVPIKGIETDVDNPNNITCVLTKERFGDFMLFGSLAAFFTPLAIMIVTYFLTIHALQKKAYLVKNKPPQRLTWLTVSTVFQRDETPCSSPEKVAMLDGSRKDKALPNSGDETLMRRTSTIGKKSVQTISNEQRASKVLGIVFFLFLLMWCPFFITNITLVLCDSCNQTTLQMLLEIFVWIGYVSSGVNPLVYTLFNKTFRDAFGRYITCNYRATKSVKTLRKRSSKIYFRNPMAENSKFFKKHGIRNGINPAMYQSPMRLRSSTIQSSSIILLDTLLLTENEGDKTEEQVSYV
Description: FIG. 3. Histogram for 5-HT2B(h) (agonist radioligand).

[3] = biological target: T2, 5-HT2C (Homo sapiens, UniProt P28335); test: Radioligand binding at 5-HT2C(h) (agonist radioligand), Eurofins Cerep Panlabs; conditions: human receptor, duplicate, read-out: Percent Inhibition of the Binding of a Specific Radioligand, 5-HT2C; for inhibition at 0.1 µM: % inh. at 100 nM; for inhibition at 1 µM: % inh. at 1.0 μM
T2 sequence (P28335 33-458): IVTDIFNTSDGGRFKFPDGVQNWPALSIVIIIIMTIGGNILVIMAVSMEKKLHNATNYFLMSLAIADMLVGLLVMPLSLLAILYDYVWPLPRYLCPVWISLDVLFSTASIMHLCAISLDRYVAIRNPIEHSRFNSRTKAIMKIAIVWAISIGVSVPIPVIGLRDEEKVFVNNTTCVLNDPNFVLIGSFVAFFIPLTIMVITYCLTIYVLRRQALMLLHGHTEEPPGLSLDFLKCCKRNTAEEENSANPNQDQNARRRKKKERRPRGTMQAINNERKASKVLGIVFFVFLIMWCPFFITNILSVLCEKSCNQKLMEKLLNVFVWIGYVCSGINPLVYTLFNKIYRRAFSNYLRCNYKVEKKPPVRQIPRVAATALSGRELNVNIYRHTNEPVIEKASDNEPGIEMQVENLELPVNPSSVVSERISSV
Description: FIG. 4. Histogram for 5-HT2C(h) (agonist radioligand).

[4] = biological target: 5-HT2A (Homo sapiens, UniProt P28223); test: Radioligand binding at 5-HT2A(h) (agonist radioligand), Eurofins Cerep Panlabs; conditions: human receptor, duplicate, read-out: Percent Inhibition of the Binding of a Specific Radioligand, 5-HT2A; for inhibition at 0.1 µM: % inh. at 100 nM; for inhibition at 1 µM: % inh. at 1.0 μM
Chain of 5-HT2A (P28223 whole entry, looked up): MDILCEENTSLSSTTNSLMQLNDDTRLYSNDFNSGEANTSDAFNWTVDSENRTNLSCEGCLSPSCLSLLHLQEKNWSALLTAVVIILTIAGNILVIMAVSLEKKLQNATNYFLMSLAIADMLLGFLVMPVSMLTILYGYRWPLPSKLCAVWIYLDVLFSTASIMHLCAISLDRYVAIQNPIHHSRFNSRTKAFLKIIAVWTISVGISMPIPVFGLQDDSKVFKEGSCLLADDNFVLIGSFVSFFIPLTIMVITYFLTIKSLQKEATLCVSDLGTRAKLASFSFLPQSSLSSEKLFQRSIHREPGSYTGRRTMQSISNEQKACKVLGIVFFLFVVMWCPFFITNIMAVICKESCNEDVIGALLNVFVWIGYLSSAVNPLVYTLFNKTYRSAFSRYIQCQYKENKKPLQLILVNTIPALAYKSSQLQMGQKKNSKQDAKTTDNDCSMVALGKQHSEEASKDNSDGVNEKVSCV
Description: FIG. 2. Histogram for 5-HT2A(h) (agonist radioligand).

[5] = biological target: T3, Serotonin 5-HT2C (Homo sapiens, UniProt P28335); test: Receptor activation potency, Serotonin 5-HT2C; type: biochemical; conditions: 5-point concentration response curves, duplicate
T3 sequence (P28335 33-458): T2 sequence (P28335 33-458)

[6] = biological target: Serotonin 5-HT2B (Homo sapiens, UniProt P41595); test: Receptor activation potency, Serotonin 5-HT2B; type: biochemical; conditions: 5-point concentration response curves, duplicate
Chain of Serotonin 5-HT2B (P41595 whole entry): as the sequence (P41595 whole entry) above

[7] = test system: GABAA; test: CNS receptor radioligand binding, GABAA; conditions: 10 μM; rat receptor data
[8] = biological target: Dopamine D1 (Homo sapiens, UniProt P21728); test: CNS receptor radioligand binding, Dopamine D1; conditions: 10 μM
Chain of Dopamine D1 (P21728 whole entry): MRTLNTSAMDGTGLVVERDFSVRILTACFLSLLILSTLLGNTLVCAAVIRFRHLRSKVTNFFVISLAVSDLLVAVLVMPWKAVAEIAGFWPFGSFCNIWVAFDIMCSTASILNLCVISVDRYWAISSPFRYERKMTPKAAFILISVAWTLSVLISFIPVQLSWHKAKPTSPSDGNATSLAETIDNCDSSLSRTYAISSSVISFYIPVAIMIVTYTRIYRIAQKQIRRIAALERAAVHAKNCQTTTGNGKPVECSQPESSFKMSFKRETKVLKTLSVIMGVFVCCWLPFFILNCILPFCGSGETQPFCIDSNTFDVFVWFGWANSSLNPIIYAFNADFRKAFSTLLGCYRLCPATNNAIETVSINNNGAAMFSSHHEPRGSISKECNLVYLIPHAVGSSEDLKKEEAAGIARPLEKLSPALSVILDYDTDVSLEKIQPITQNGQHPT

[9] = biological target: Dopamine D2L (Homo sapiens, UniProt P14416); test: CNS receptor radioligand binding, Dopamine D2L; conditions: 10 μM
Chain of Dopamine D2L (P14416 whole entry): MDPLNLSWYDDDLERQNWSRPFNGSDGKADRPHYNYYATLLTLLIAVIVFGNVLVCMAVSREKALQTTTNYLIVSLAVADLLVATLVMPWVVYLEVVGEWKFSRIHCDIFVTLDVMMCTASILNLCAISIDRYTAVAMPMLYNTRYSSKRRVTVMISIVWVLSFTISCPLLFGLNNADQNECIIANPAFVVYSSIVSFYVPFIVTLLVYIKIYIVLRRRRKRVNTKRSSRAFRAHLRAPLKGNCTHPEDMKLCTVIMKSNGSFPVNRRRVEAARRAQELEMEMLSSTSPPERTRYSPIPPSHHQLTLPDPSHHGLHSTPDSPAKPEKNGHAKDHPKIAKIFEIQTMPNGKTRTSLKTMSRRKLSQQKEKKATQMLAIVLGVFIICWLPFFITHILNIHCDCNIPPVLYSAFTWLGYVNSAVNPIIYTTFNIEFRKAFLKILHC

[10] = biological target: T4, Serotonin 5-HT1A (Homo sapiens, UniProt P08908); test: Receptor activation potency, Serotonin 5-HT1A; type: biochemical; conditions: 5-point concentration response curves, duplicate
T4 sequence (P08908 1-422): T1 sequence (P08908 1-422)

[11] = biological target: T5, Orexin OX1 (Homo sapiens, UniProt O43613); test: CNS receptor radioligand binding, Orexin OX1; conditions: 10 μM
T5 sequence (O43613 1-425): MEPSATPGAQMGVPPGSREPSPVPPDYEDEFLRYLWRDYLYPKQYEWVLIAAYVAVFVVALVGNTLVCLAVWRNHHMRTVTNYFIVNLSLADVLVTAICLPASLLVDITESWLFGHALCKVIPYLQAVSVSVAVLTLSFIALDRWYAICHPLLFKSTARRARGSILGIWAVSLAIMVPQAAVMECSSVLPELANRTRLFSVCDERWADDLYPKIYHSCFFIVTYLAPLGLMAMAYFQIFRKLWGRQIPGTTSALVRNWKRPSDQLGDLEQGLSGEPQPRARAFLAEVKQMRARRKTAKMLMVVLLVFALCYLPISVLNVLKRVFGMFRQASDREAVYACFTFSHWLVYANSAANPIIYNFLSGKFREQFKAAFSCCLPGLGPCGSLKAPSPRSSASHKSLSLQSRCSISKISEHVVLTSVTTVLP

[12] = biological target: T4, Serotonin 5-HT1A; test: CNS receptor radioligand binding, Serotonin 5-HT1A
[13] = biological target: T6, Muscarinic M5 (Homo sapiens, UniProt P08912); test: CNS receptor radioligand binding, Muscarinic M5; conditions: 10 μM
T6 sequence (P08912 1-532): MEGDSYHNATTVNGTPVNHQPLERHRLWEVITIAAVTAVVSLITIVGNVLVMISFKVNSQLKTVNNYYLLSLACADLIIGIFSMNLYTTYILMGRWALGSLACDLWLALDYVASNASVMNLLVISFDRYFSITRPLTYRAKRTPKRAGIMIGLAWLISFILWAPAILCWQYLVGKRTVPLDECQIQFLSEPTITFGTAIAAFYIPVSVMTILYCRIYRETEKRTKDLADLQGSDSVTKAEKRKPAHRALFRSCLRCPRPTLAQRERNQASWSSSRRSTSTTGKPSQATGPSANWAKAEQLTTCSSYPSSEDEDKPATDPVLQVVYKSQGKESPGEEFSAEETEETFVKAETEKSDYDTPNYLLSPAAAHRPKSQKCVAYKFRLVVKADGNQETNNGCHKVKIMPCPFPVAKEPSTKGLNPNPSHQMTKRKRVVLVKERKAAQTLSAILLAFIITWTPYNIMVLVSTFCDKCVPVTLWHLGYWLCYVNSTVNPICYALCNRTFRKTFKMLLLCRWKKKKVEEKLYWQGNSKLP

[14] = biological target: T7, Serotonin 5-HT2A (Homo sapiens, UniProt P28223); test: CNS receptor radioligand binding, Serotonin 5-HT2A
T7 sequence (P28223 whole entry, looked up): as the sequence (P28223 whole entry, looked up) above

[15] = test system: Adrenergic α1; test: CNS receptor radioligand binding, Adrenergic α1; conditions: 10 μM; rat receptor data
[16] = biological target: T7, Serotonin 5-HT2A; test: Receptor activation potency, Serotonin 5-HT2A; type: biochemical; conditions: 5-point concentration response curves, duplicate
[17] = biological target: Dopamine D3 (Homo sapiens, UniProt P35462); test: CNS receptor radioligand binding, Dopamine D3
Chain of Dopamine D3 (P35462 whole entry): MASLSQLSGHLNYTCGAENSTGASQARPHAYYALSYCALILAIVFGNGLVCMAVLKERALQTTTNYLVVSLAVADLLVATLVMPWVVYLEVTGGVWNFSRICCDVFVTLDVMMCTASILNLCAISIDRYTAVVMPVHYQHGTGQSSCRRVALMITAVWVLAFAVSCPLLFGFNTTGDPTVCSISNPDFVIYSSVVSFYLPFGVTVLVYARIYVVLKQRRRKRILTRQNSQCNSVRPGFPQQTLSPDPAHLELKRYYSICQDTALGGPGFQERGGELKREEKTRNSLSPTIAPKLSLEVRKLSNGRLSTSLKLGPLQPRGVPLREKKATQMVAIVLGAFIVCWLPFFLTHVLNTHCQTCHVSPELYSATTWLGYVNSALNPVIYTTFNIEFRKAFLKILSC

[18] = biological target: Sigma-1 (Homo sapiens, UniProt Q99720); test: Inhibition constant, Sigma-1; type: binding; conditions: human receptor; 5-point concentration response curves; duplicate; read-out: inhibition constants Ki, Sigma-1
Chain of Sigma-1 (Q99720 whole entry): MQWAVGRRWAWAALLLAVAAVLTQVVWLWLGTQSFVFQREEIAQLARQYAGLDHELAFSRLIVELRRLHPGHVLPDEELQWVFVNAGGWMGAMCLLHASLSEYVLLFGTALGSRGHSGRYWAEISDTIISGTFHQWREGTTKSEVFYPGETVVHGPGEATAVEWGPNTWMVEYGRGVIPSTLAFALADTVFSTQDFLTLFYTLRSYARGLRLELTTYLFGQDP

[19] = biological target: Nicotinic Acetylcholine α4β2 (Homo sapiens, UniProt P17787+P43681); test: CNS receptor radioligand binding, Nicotinic Acetylcholine α4β2; conditions: 10 μM
Chain of Nicotinic Acetylcholine α4β2 (P43681 29-627 limits assumed): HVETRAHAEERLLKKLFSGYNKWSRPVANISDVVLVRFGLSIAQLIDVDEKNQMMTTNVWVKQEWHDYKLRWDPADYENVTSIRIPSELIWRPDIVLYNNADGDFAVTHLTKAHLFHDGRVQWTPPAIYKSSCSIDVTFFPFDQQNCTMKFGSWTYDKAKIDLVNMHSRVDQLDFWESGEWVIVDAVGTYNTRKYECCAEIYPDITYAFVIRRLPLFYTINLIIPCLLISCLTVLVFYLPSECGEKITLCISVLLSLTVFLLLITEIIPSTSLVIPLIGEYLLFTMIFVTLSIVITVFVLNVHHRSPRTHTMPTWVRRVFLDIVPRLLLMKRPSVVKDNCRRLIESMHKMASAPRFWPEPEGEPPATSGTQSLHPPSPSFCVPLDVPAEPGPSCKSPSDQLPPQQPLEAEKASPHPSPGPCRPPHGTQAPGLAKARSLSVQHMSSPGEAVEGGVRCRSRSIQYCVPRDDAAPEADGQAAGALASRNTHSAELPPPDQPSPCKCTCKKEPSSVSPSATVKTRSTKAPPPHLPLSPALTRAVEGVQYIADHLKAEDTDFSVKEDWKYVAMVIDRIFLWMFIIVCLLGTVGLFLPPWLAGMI
Chain of Nicotinic Acetylcholine α4β2 (P17787 26-502): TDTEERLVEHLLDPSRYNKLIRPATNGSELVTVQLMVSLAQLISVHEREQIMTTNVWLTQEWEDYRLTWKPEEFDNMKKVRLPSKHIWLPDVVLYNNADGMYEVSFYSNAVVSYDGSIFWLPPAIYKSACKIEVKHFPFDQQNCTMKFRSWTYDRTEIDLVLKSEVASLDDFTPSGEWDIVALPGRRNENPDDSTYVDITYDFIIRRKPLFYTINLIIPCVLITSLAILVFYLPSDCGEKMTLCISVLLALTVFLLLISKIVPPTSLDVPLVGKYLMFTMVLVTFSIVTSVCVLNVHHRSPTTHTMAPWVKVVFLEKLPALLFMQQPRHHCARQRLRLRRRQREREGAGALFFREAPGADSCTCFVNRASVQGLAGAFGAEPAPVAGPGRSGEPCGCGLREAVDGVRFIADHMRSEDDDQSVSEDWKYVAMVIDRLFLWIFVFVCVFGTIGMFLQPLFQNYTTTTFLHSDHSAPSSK

[20] = biological target: T8, Muscarinic M2 (Homo sapiens, UniProt P08172); test: CNS receptor radioligand binding, Muscarinic M2; conditions: 10 μM
T8 sequence (P08172 1-466): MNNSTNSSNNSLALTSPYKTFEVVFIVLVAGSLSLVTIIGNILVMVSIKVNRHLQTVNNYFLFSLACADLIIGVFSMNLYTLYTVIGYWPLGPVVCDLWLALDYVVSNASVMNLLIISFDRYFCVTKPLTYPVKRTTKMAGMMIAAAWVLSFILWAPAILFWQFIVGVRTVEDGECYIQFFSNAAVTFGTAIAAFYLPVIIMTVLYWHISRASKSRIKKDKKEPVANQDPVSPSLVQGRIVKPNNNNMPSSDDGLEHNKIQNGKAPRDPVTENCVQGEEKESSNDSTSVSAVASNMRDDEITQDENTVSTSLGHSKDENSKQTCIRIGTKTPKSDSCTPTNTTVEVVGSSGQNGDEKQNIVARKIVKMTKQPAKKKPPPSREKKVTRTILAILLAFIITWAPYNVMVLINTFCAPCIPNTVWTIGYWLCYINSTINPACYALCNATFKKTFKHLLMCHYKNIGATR

[21] = biological target: Opiate κ (Homo sapiens, UniProt P41145); test: CNS receptor radioligand binding, Opiate κ; conditions: 10 μM
Chain of Opiate κ (P41145 whole entry): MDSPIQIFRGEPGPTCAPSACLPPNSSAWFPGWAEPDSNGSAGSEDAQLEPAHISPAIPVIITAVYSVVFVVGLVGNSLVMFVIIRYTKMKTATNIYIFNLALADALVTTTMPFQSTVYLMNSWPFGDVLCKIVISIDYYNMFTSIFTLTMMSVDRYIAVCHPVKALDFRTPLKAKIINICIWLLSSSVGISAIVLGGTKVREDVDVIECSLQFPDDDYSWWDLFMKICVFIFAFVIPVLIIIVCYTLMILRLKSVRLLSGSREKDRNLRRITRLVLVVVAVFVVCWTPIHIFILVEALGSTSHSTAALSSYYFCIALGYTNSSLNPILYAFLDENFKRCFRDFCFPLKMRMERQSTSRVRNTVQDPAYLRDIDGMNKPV

[22] = biological target: Histamine H1 (Homo sapiens, UniProt P35367); test: CNS receptor radioligand binding, Histamine H1 (human); conditions: 10 μM
Chain of Histamine H1 (P35367 whole entry): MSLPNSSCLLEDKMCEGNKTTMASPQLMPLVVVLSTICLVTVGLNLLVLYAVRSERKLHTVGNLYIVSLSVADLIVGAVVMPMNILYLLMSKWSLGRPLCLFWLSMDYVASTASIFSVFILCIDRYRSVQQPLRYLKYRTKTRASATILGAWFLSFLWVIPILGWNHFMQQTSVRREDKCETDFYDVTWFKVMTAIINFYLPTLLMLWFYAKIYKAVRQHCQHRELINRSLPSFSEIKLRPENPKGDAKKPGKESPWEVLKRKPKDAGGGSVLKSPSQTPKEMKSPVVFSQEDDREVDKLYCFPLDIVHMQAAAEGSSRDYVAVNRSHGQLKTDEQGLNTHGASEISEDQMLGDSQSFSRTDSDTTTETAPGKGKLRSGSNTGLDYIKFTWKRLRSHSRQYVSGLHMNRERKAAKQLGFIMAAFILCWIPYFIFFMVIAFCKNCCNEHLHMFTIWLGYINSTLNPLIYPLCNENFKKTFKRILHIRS

Molecule	inhibition at 0.1 µM [1]	inhibition at 1 µM [1]	inhibition at 0.1 µM [2]	inhibition at 1 µM [2]	inhibition at 0.1 µM [3]	inhibition at 1 µM [3]	inhibition at 0.1 µM [4]	inhibition at 1 µM [4]	EC50 [5]	EC50 [6]	Percent Inhibition of Specific Binding of a Radioligand Standard, GABAA [7]	Percent Inhibition of Specific Binding of a Radioligand Standard, Dopamine D1 [8]	Percent Inhibition of Specific Binding of a Radioligand Standard, Dopamine D2L [9]	EC50 [10]	Percent Inhibition of Specific Binding of a Radioligand Standard, Orexin OX1 [11]	Percent Inhibition of Specific Binding of a Radioligand Standard, Serotonin 5-HT1A ([12]; 1 μM)	Percent Inhibition of Specific Binding of a Radioligand Standard, Serotonin 5-HT1A ([12]; 10 μM)	Percent Inhibition of Specific Binding of a Radioligand Standard, Muscarinic M5 [13]	Percent Inhibition of Specific Binding of a Radioligand Standard, Serotonin 5-HT2A ([14]; 1 μM)	Percent Inhibition of Specific Binding of a Radioligand Standard, Serotonin 5-HT2A ([14]; 10 μM)	other results
CN1C[C@H](CO)C=C2c3cccc4[nH]cc(c34)C[C@H]21 [(+)-1, (+)-lysergol]	94%	99%	96%	99%	97%	99%	96%	97%													
CN1C[C@@H](CO)C=C2c3cccc4[nH]cc(c34)C[C@H]21 [(+)-2, (+)-isolysergol]	96%	99%	90%	93%	91%	97%	92%	99%													
CN1C[C@@H](CO)C=C2c3cccc4[nH]cc(c34)C[C@@H]21 [(−)-1, (−)-lysergol]	27%	67%	34%	87%	41%	86%	12%	62%													
CN1C[C@H](CO)C=C2c3cccc4[nH]cc(c34)C[C@@H]21 [(−)-2, (−)-isolysergol]	9%	19%	3%	16%	5%	44%	0%	20%													
(+)-Cycloclavine									0.016 µM	> 20 µM	9 % inh	91 % inh	81 % inh	0.14 µM	23 % inh	97 % inh	97 % inh	11 % inh	100 % inh	100 % inh	Percent Inhibition of Specific Binding of a Radioligand Standard, Adrenergic α1 [15]: 57 % inh; EC50 [16]: ~10 µM; Percent Inhibition of Specific Binding of a Radioligand Standard, Dopamine D3 ([17]; 1 μM): 75 % inh; Percent Inhibition of Specific Binding of a Radioligand Standard, Dopamine D3 ([17]; 10 μM): 93 % inh; Ki [18]: ~50 µM; Percent Inhibition of Specific Binding of a Radioligand Standard, Nicotinic Acetylcholine α4β2 [19]: 9 % inh; Percent Inhibition of Specific Binding of a Radioligand Standard, Muscarinic M2 [20]: 0 % inh; Percent Inhibition of Specific Binding of a Radioligand Standard, Opiate κ [21]: 73 % inh; Percent Inhibition of Specific Binding of a Radioligand Standard, Histamine H1 [22]: 17 % inh
(−)-Cycloclavine									3.2 µM	> 20 µM	0 % inh	30 % inh	14 % inh	~5 µM	6 % inh	73 % inh	91 % inh	15 % inh	51 % inh	89 % inh	Percent Inhibition of Specific Binding of a Radioligand Standard, Adrenergic α1 [15]: 59 % inh; EC50 [16]: > 50 µM; Percent Inhibition of Specific Binding of a Radioligand Standard, Dopamine D3 ([17]; 1 μM): 32 % inh; Percent Inhibition of Specific Binding of a Radioligand Standard, Dopamine D3 ([17]; 10 μM): 64 % inh; Ki [18]: 8.3 µM; Percent Inhibition of Specific Binding of a Radioligand Standard, Nicotinic Acetylcholine α4β2 [19]: 11 % inh; Percent Inhibition of Specific Binding of a Radioligand Standard, Muscarinic M2 [20]: 0 % inh; Percent Inhibition of Specific Binding of a Radioligand Standard, Opiate κ [21]: 75 % inh; Percent Inhibition of Specific Binding of a Radioligand Standard, Histamine H1 [22]: 27 % inh
